Source: publication PMC7862291, “Full-length in meso structure and mechanism of rat kynurenine 3-monooxygenase inhibition” (Communications Biology, 2021)
“And” between values parts separate entries of the source, which are not always exact repeats. Equal values may be shown once.

Key:
Rat KMO = molecular target: T1, Rat KMO (Rattus norvegicus, UniProt O88867); experiment: Rat KMO enzyme (cell-free) assay, NADPH consumption by absorbance; assay type: biochemical
T1 construct: The GST-tagged full-length KMO (1-478) baculovirus vector contained a thrombin cleavage site; GST (thrombin cleavage site between GST and KMO) (N, cleaved yes); made in house; host or cells: Spodoptera frugiperda (Sf9), baculovirus
Method in brief: (§1)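 Recombinant human KMO or purified full-length rat KMO, pre-incubated 5 min with compound in HEPES buffer pH ~7.9 with MgCl2, EGTA, DTT, Tween20. Substrate mix of 2.4 mM kynurenine and 0.6 mM NADPH (solution concentrations) added; 90 min at 30 °C. Stopped with maleimide, then WST-9/1-methoxy-PMS colour read-out.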

hKMO = molecular target: T2, hKMO (Homo sapiens, UniProt O15229); experiment: Human KMO enzyme (cell-free) assay, NADPH consumption by absorbance; assay type: biochemical
T2 construct: purchased Origene
Method in brief: as §1

[1] = molecular target: T3, HEK293 cells stably expressing rat KMO (Rattus norvegicus, UniProt O88867); experiment: Cell-based rat KMO inhibition assay (LC/MS of 3-hydroxykynurenine)
T3 construct: expressed in transfected cells
Method in brief: (§2)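 HEK293 lines stably expressing human or rat KMO, pre-incubated ~30 min at 37 °C with compound (final 0–30 μM, 0.3% DMSO) in HBSS/20 mM HEPES. Then 2 h at 37 °C with 0.2 mM kynurenine (solution concentration). 3-Hydroxykynurenine in cell extracts quantified by LC-MS/MS, positive ESI.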

[2] = molecular target: T4, HEK293 cells stably expressing human KMO (Homo sapiens, UniProt O15229); experiment: Cell-based human KMO inhibition assay (LC/MS of 3-hydroxykynurenine)
T4 construct: expressed in transfected cells
Method in brief: as §2

T2 sequence (O15229 whole entry): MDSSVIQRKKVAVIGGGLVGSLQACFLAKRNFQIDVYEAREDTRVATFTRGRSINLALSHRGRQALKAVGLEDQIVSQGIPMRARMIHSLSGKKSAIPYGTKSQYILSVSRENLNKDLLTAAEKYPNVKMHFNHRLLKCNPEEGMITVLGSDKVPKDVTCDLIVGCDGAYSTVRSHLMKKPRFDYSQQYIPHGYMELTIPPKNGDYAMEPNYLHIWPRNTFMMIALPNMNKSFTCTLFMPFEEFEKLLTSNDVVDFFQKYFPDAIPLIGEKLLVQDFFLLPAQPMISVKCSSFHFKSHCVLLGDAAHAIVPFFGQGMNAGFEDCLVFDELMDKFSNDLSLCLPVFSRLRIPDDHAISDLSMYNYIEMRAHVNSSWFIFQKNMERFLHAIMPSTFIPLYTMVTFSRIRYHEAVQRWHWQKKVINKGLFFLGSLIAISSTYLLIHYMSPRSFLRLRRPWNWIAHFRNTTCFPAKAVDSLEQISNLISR
T4 sequence (O15229 whole entry): as above
T1 sequence (O88867 whole entry): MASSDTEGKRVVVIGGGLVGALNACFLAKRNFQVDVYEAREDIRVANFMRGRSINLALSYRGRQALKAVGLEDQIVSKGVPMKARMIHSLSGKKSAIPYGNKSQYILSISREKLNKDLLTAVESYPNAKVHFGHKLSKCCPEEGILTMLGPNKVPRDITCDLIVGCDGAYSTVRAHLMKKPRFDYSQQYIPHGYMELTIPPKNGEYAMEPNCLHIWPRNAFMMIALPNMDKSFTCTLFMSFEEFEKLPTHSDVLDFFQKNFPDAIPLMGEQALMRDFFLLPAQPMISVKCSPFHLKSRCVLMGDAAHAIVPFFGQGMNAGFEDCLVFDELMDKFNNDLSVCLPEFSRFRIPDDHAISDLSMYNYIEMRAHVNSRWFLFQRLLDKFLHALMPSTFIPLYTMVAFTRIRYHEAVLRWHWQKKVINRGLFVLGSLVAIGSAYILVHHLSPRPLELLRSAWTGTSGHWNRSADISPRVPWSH
T3 sequence (O88867 whole entry): as above

Compound: Cc1cnn(-c2cccc(C(=O)O)c2)c1-c1ccccc1 [Compound 1]
- IC50 (Rat KMO; cell-free enzyme assay, high kynurenine): 570 nM
- inhibition rate, Rat-KMO cell-free assay (Figure 1B source data) (Rat KMO; conc 0.03 μM, duplicates): 4.679% and 12.234%
- inhibition rate, Rat-KMO cell-free assay (Figure 1B source data) (Rat KMO; conc 0.1 μM, duplicates): 19.657%
- inhibition at 0.1 µM (Rat KMO; conc 0.1 μM, duplicates, read-out: inhibition rate, Rat-KMO cell-free assay (Figure 1B source data)): 16%
- inhibition rate, Rat-KMO cell-free assay (Figure 1B source data) (Rat KMO; conc 0.3 μM, duplicates): 35.882%
- inhibition at 0.3 µM (Rat KMO; conc 0.3 μM, duplicates, read-out: inhibition rate, Rat-KMO cell-free assay (Figure 1B source data)): 39.2%
- inhibition rate, Rat-KMO cell-free assay (Figure 1B source data) (Rat KMO; conc 1 μM, duplicates): 64.963%
- inhibition at 1 µM (Rat KMO; conc 1 μM, duplicates, read-out: inhibition rate, Rat-KMO cell-free assay (Figure 1B source data)): 63.5%
- inhibition rate, Rat-KMO cell-free assay (Figure 1B source data) (Rat KMO; conc 3 μM, duplicates): 78.325%
- inhibition at 3 µM (Rat KMO; conc 3 μM, duplicates, read-out: inhibition rate, Rat-KMO cell-free assay (Figure 1B source data)): 81.5%
- inhibition rate, Rat-KMO cell-free assay (Figure 1B source data) (Rat KMO; conc 10 μM, duplicates): 86.225%
- inhibition at 10 µM (Rat KMO; conc 10 μM, duplicates, read-out: inhibition rate, Rat-KMO cell-free assay (Figure 1B source data)): 85.2%
- inhibition rate, Rat-KMO cell-free assay (Figure 1B source data) (Rat KMO; conc 30 μM, duplicates): 94.681%
- inhibition at 30 µM (Rat KMO; conc 30 μM, duplicates, read-out: inhibition rate, Rat-KMO cell-free assay (Figure 1B source data)): 95.7%
- inhibition rate, Rat-KMO cell-free assay (Figure 1B source data) (Rat KMO; conc 100 μM, duplicates): 91.129%
- inhibition at 100 µM (Rat KMO; conc 100 μM, duplicates, read-out: inhibition rate, Rat-KMO cell-free assay (Figure 1B source data)): 88.8%
- IC50 (hKMO; cell-free enzyme assay, high kynurenine, read-out: Human KMO IC50): 160 nM
- inhibition rate, Hs-KMO cell-free assay (Figure 1A source data) (hKMO; conc 0.03 μM, duplicates): 13.527%
- inhibition at 0.03 µM (hKMO; conc 0.03 μM, duplicates, read-out: inhibition rate, Hs-KMO cell-free assay (Figure 1A source data)): 15.1%
- inhibition rate, Hs-KMO cell-free assay (Figure 1A source data) (hKMO; conc 0.1 μM, duplicates): 37.639%
- inhibition at 0.1 µM (hKMO; conc 0.1 μM, duplicates, read-out: inhibition rate, Hs-KMO cell-free assay (Figure 1A source data)): 41.4%
- inhibition rate, Hs-KMO cell-free assay (Figure 1A source data) (hKMO; conc 0.3 μM, duplicates): 65.813%
- inhibition at 0.3 µM (hKMO; conc 0.3 μM, duplicates, read-out: inhibition rate, Hs-KMO cell-free assay (Figure 1A source data)): 66.6%
- inhibition rate, Hs-KMO cell-free assay (Figure 1A source data) (hKMO; conc 1 μM, duplicates): 77.715%
- inhibition at 1 µM (hKMO; conc 1 μM, duplicates, read-out: inhibition rate, Hs-KMO cell-free assay (Figure 1A source data)): 82.9%
- inhibition rate, Hs-KMO cell-free assay (Figure 1A source data) (hKMO; conc 3 μM, duplicates): 95.862%
- inhibition at 3 µM (hKMO; conc 3 μM, duplicates, read-out: inhibition rate, Hs-KMO cell-free assay (Figure 1A source data)): 99.1%
- inhibition rate, Hs-KMO cell-free assay (Figure 1A source data) (hKMO; conc 10 μM, duplicates): 92.894%
- inhibition at 10 µM (hKMO; conc 10 μM, duplicates, read-out: inhibition rate, Hs-KMO cell-free assay (Figure 1A source data)): 97.2%
- inhibition rate, Hs-KMO cell-free assay (Figure 1A source data) (hKMO; conc 30 μM, duplicates): 103.928%
- inhibition at 30 µM (hKMO; conc 30 μM, duplicates, read-out: inhibition rate, Hs-KMO cell-free assay (Figure 1A source data)): 104%
- inhibition rate, Hs-KMO cell-free assay (Figure 1A source data) (hKMO; conc 100 μM, duplicates): 96.422%
- inhibition at 100 µM (hKMO; conc 100 μM, duplicates, read-out: inhibition rate, Hs-KMO cell-free assay (Figure 1A source data)): 100%
- inhibition at 0.03 µM ([1]; HEK293, conc 0.03 μM, duplicates, read-out: inhibition rate, Rat-KMO cellular assay (Figure 1D source data)): 4.96%
- inhibition at 0.1 µM ([1]; HEK293, conc 0.1 μM, duplicates, read-out: inhibition rate, Rat-KMO cellular assay (Figure 1D source data)): 0.969%
- inhibition at 0.3 µM ([1]; HEK293, conc 0.3 μM, duplicates, read-out: inhibition rate, Rat-KMO cellular assay (Figure 1D source data)): 4.27%
- inhibition at 3 µM ([1]; HEK293, conc 3 μM, duplicates, read-out: inhibition rate, Rat-KMO cellular assay (Figure 1D source data)): 20.1%
- inhibition at 10 µM ([1]; HEK293, conc 10 μM, duplicates, read-out: inhibition rate, Rat-KMO cellular assay (Figure 1D source data)): 58.4%
- inhibition at 30 µM ([1]; HEK293, conc 30 μM, duplicates, read-out: inhibition rate, Rat-KMO cellular assay (Figure 1D source data)): 87.7%
- IC50 ([1]; HEK293 cells expressing rat KMO, LC/MS): 7300 nM
- inhibition rate, Rat-KMO cellular assay (Figure 1D source data) ([1]; conc 0.03 μM, duplicates): 3.155%
- inhibition rate, Rat-KMO cellular assay (Figure 1D source data) ([1]; conc 0.1 μM, duplicates): 1.853%
- inhibition rate, Rat-KMO cellular assay (Figure 1D source data) ([1]; conc 0.3 μM, duplicates): 6.904%
- inhibition rate, Rat-KMO cellular assay (Figure 1D source data) ([1]; conc 3 μM, duplicates): 21.339%
- inhibition rate, Rat-KMO cellular assay (Figure 1D source data) ([1]; conc 10 μM, duplicates): 59.197%
- inhibition rate, Rat-KMO cellular assay (Figure 1D source data) ([1]; conc 30 μM, duplicates): 87.499%
- inhibition at 0.1 µM ([2]; HEK293, conc 0.1 μM, duplicates, read-out: inhibition rate, Hs-KMO cellular assay (Figure 1C source data)): 17%
- inhibition at 0.3 µM ([2]; HEK293, conc 0.3 μM, duplicates, read-out: inhibition rate, Hs-KMO cellular assay (Figure 1C source data)): 33.6%
- inhibition at 1 µM ([2]; HEK293, conc 1 μM, duplicates, read-out: inhibition rate, Hs-KMO cellular assay (Figure 1C source data)): 60.2%
- inhibition at 3 µM ([2]; HEK293, conc 3 μM, duplicates, read-out: inhibition rate, Hs-KMO cellular assay (Figure 1C source data)): 88.1%
- inhibition at 10 µM ([2]; HEK293, conc 10 μM, duplicates, read-out: inhibition rate, Hs-KMO cellular assay (Figure 1C source data)): 100%
- inhibition at 30 µM ([2]; HEK293, conc 30 μM, duplicates, read-out: inhibition rate, Hs-KMO cellular assay (Figure 1C source data)): 104%
- IC50 ([2]; HEK293 cells expressing human KMO, LC/MS, read-out: Human cell-based assay IC50): 580 nM
- inhibition rate, Hs-KMO cellular assay (Figure 1C source data) ([2]; conc 0.03 μM, duplicates): 1.868% and 10.412%
- inhibition rate, Hs-KMO cellular assay (Figure 1C source data) ([2]; conc 0.1 μM, duplicates): 14.953%
- inhibition rate, Hs-KMO cellular assay (Figure 1C source data) ([2]; conc 0.3 μM, duplicates): 36.860%
- inhibition rate, Hs-KMO cellular assay (Figure 1C source data) ([2]; conc 1 μM, duplicates): 55.900%
- inhibition rate, Hs-KMO cellular assay (Figure 1C source data) ([2]; conc 3 μM, duplicates): 85.656%
- inhibition rate, Hs-KMO cellular assay (Figure 1C source data) ([2]; conc 10 μM, duplicates): 99.963%
- inhibition rate, Hs-KMO cellular assay (Figure 1C source data) ([2]; conc 30 μM, duplicates): 103.556%
